Results as given in patent US10159675B2, “Cycling therapy using 3-(5-amino-2-methyl-4-oxo-4H-quinazolin-3-yl)-piperidine-2,6-dione” (Celgene Corporation, priority 2015, dated 2018).

Key:
[1] = test system: Memory T cells; experiment: Clinical study: lymphocyte phenotyping by flow cytometry; type: in vivo, human; details: cycle 1, day 22, peripheral blood, 5/7 d schedule
Method: (§1) Sample Analysis • Aiolos was measured by flow cytometry on samples of whole blood drawn at 0 hours (pre-dose) and at 1.5 and 5 hours post-dose on cycle 1, day 1 • Archival or screening formalin-fixed paraffin-embedded (FFPE) tissues were stained for MYC and BCL2 expression6 on a Bond-Max automated slide stainer (Leica Microsystems, Buffalo Grove, Ill.) • Pathology review was performed on a hematoxylin and eosin stained slides to identify the area of DLBCL • RNA extraction and NanoString nCounter Analysis System lymphoma subtyping test (Seattle, Wash.) were performed as reported previously7 on core needle and excisional biopsy samples • For lymphocyte phenotyping, whole blood was drawn pre-dose (baseline) and 1.5 hours post-dose on cycle 1 day 15, cycle 1 day 22, cycle 2 day 15, and cycle 2 day 22 • Memory T cells ([…]) were measured by flow cytometry.

[2] = test system: patients with relapsed or refractory DLBCL; experiment: Clinical study: dose-limiting toxicities, adverse events, dose modifications
Excerpt: Adverse events (AEs) were graded by NCI CTCAE v4.0, and responses were investigator assessed using International Workshop criteria for NHL.

[3] = test system: patients with relapsed or refractory DLBCL; experiment: Clinical study: response (International Workshop criteria for NHL), by schedule and biomarker; type: in vivo, human
Method: as §1

[4] = test system: Human CD34+ bone marrow cells; experiment: In vitro myeloid differentiation assay; type: cell-based; parameters: dose or concentration left out as unconfirmed; details: after 14 days
Method: Human CD34+ bone marrow cells were seeded in stem cell factor, Fms-like tyrosine kinase 3 ligand (F1t3L) and granulocyte colony-stimulating factor (G-CSF), followed by 6 days with media plus G-CSF. Compound 1 […] was added continuously or on a 5-of-7-day (5/7 d) schedule. After 14 days, myeloid maturation stages were measured by CD34, CD33, and CD11b flow cytometry.

[5] = AEs occurring in >20% of patients, 3 mg 28/28 d (n = 25)
[6] = AEs occurring in >20% of patients, 4 mg 5/7 d (n = 21)
[7] = Grade 3/4 AEs occurring in >1 patient, 3 mg 28/28 d (n = 25)
[8] = Grade 3/4 AEs occurring in >1 patient, 4 mg 5/7 d (n = 21)
[9] = 4 mg 5/7 d DLBCL-2 cohort (n=17)
[10] = 5 mg 5/7 d DLBCL-2 cohort (n=3)

Cc1nc2cccc(N)c2c(=O)n1C1CCC(=O)NC1=O (stereo not drawn) [Compound 1, 3-(5-amino-2-methyl-4-oxo-4H-quinazolin-3-yl)-piperidine-2,6-dione]
median increase from baseline in cytotoxic memory T cells [1]: 266% | median increase from baseline in helper memory T cells [1]: 75% | Relative dose intensity (median) ([2]; 3 mg 28/28 d (daily continuously, n = 25)): 78.6% | DLTs (kind): febrile neutropenia ([2]; 3 mg qd): Grade 3 febrile | DLTs (kind): neutropenia ([2]; 3 mg qd): Grade 4 | DLTs (kind): sepsis ([2]; 3 mg qd): Grade 4 sepsis | AE asthenia, patients ([2]; 4 mg 5/7 d): 29% | AE constipation, patients ([2]; 4 mg 5/7 d): 29% | AE neutropenia, patients ([2]; 4 mg 5/7 d): 52% | AE pyrexia, patients ([2]; 4 mg 5/7 d): 57% | DLTs (kind): neutropenia ([2]; 4 mg 5/7 d): Grade 4 | serious treatment-related AE neck pain ([2]; 4 mg 5/7 d): 5% | serious treatment-related AE pneumonia ([2]; 4 mg 5/7 d): 5% | serious treatment-related AE pneumonitis ([2]; 4 mg 5/7 d): 5% | Relative dose intensity (median) ([2]; 4 mg 5/7 d (n = 21)): 97.5% | DLTs reported ([2]; 4 mg 5/7 d, DLBCL-2 expansion, 19 DLT-evaluable patients): No DLTs | dose-limiting toxicities during cycle 1 ([2]; 4 mg, 21/28 d cohort (n=3)): no dose-limiting toxicities | patients requiring subsequent dose reduction due to grade 4 neutropenia ([2]; 4 mg, 21/28 d cohort (n=3)): 3 patients | DLTs (kind): febrile neutropenia ([2]; 5 mg 5/7 d): Grade 3 | DLTs (kind): pneumonitis ([2]; 5 mg 5/7 d): Grade 3 | MTD ([2]; 5/7 d schedule): 4 mg | NTD ([2]; 5/7 d schedule): 5 mg | severity of neutropenia ([2]; 5/7 d schedule (FIG. 2)): mitigated | non-tolerated dose (NTD) ([2]; 21/28 d schedule): 4 mg | Anemia [2, 5]: 13 (52) n (%) | Appetite [2, 5]: 1 (4) n (%) | Arrhythmia [2, 5]: 0 n (%) | Asthenia [2, 5]: 14 (56) n (%) | Constipation [2, 5]: 4 (16) n (%) | Cough [2, 5]: 10 (40) n (%) | Decreased [2, 5]: 3 (12) n (%) | Diarrhea [2, 5]: 5 (20) n (%) | Dyspnea [2, 5]: 4 (16) n (%) | Nausea [2, 5]: 4(16) n (%) | Neutropenia [2, 5]: 19 (76) n (%) | Peripheral edema [2, 5]: 7 (28) n (%) | Pyrexia [2, 5]: 10 (40) n (%) | Thrombocytopenia [2, 5]: 9 (36) n (%) | Vomiting [2, 5]: 4 (16) n (%) | Anemia [2, 6]: 5 (24) n (%) | Appetite [2, 6]: 3 (14) n (%) | Arrhythmia [2, 6]: 2 (10) n (%) | Asthenia [2, 6]: 6 (29) n (%) | Constipation [2, 6]: 6 (29) n (%) | Cough [2, 6]: 2 (10) n (%) | Decreased [2, 6]: 3 (14) n (%) | Diarrhea [2, 6]: 3 (14) n (%) | Dyspnea [2, 6]: 5 (24) n (%) | Nausea [2, 6]: 5 (24) n (%) | Neutropenia [2, 6]: 11 (52) n (%) | Peripheral edema [2, 6]: 4 (19) n (%) | Pyrexia [2, 6]: 12 (57) n (%) | Thrombocytopenia [2, 6]: 5 (21) n (%) | Vomiting [2, 6]: 5 (24) n (%) | DLTs, n (%) ([2]; DLBCL-2, 4 mg 5/7 d, 19 DLT evaluable): 0 n (%) | DLTs, n (%) ([2]; DLBCL-2, 4 mg 21/28 d, 3 DLT evaluable): 0 n (%) | DLTs, n (%) ([2]; DLBCL-2, 5 mg 5/7 d, 5 DLT evaluable): 2 (40) n (%) | Anemia [2, 7]: 3 (12) n (%) | Appetite [2, 7]: 0 n (%) | Arrhythmia [2, 7]: 0 n (%) | Asthenia [2, 7]: 5 (20) n (%) | Constipation [2, 7]: 0 n (%) | Cough [2, 7]: 0 n (%) | Decreased [2, 7]: 0 n (%) | Diarrhea [2, 7]: 0 n (%) | Dyspnea [2, 7]: 0 n (%) | Nausea [2, 7]: 0 n (%) | Neutropenia [2, 7]: 16 (64) n (%) | Peripheral edema [2, 7]: 0 n (%) | Pyrexia [2, 7]: 0 n (%) | Thrombocytopenia [2, 7]: 3 (12) n (%) | Vomiting [2, 7]: 0 n (%) | Anemia [2, 8]: 0 n (%) | Appetite [2, 8]: 0 n (%) | Arrhythmia [2, 8]: 2 (7) n (%) | Asthenia [2, 8]: 0 n (%) | Constipation [2, 8]: 0 n (%) | Cough [2, 8]: 0 n (%) | Decreased [2, 8]: 0 n (%) | Diarrhea [2, 8]: 0 n (%) | Dyspnea [2, 8]: 0 n (%) | Nausea [2, 8]: 0 n (%) | Neutropenia [2, 8]: 8 (38) n (%) | Peripheral edema [2, 8]: 0 n (%) | Pyrexia [2, 8]: 0 n (%) | Thrombocytopenia [2, 8]: 0 n (%) | Vomiting [2, 8]: 0 n (%) | DLTs, n (%) ([2]; NHL-1, 3 mg qd, 18 DLT evaluable): 3 (17) n (%) | complete responses [CR] ([3]; 3 mg 28/28 d cohort (n=22)): 2 | overall response rate (ORR) ([3]; 3 mg 28/28 d cohort (n=22)): 27% | partial responses [PR] ([3]; 3 mg 28/28 d cohort (n=22)): 4 | CR [3, 9]: 2 | ORR [3, 9]: 39% | PR [3, 9]: 5 | CR [3, 10]: 1 | ORR [3, 10]: 100% | PR [3, 10]: 2 | PFS ([3]; Cell of Origin ABC): 99 days | PFS ([3]; Cell of Origin GCB): 100 days | ORR ([3]; Cell of Origin Non-ABC): 8/27 (30%) | PFS ([3]; Cell of Origin Non-ABC): 64 days | ORR ([3]; Cell of Origin Non-GCB): 6/18 (33%) | PFS ([3]; Cell of Origin Non-GCB): 74 days | PFS ([3]; Cell of Origin Unclassified): 51 days | PFS ([3]; MYC/BCL2 dual expressor Negative): 70 days | PFS ([3]; MYC/BCL2 dual expressor Positive): 100 days | decreased mature neutrophils compared with vehicle ([4]; continuous exposure): 90% | decreased mature neutrophils ([4]; exposure for 5/7 d): 50%
